# Source: patent US20090062369A1, “USE OF SECRETORY PHOSPHOLIPASE A2 (SPLA2) INHIBITORS TO DECREASE SPLA2 LEVELS” (priority 2007, published 2009)
# System: serum sPLA2
# Assay: Effect of twice-a-day oral A-002 on serum sPLA2 levels in subjects with stable coronary artery disease (Example 6)
# Format: in vivo, human
# Procedure: The protocol for preparing standard curve, test, and quality control samples for use in the assay disclosed herein is set forth in Example 5. Samples are prepared according to this protocol, then loaded in duplicate onto a plate (Cayman catalog no. 485002 or equivalent) that has been pre-coated with a monoclonal sPLA2 antibody (“capture antibody”) that specifically binds sPLA2. In certain embodiments, the capture antibody may interact with a specific form of sPLA2, such as for example sPLA2 type IIA.
# sPLA2 acetylcholinesterase:Fab′ conjugate (AChE:Fab′) (“conjugate”) (Cayman catalog no. 485000 or equivalent) is reconstituted in EIA buffer (Cayman catalog no. 400060 or equivalent). Cayman EIA buffer is 1M phosphate, pH 7.0, 1% BSA, 4M NaCl, 10 mM EDTA, and 0.1% sodium azide. Reconstituted conjugate is added to each well of the plate. The conjugate binds a different sPLA2 epitope than the capture antibody, allowing the capture antibody and the conjugate to form a “sandwich” that is immobilized on the plate. Excess reagents are washed away, and the plate is covered and incubated overnight at 2-8° C.
# Prior to development, the wells are washed five to six times with wash buffer (Cayman catalog no. 400062 or equivalent). To develop the plate, Ellman's Reagent (Cayman catalog no. 400050 or equivalent) is reconstituted in water and added to each well according to manufacturer instructions. The reconstituted Ellman's Reagent must be used the same day it is prepared because it is unstable. Ellman's Reagent contains an AChE substrate. Specifically, Ellman's Reagent contains acetylthiocholine and 5,5′-dithio-bis-(2-nitrobenzoic acid). Hydrolysis of acetylthiocholine by acetylcholinesterase produces thiocholine, which reacts with 5,5′-dithio-bis-(2-nitrobenzoic acid) to produce 5-thio-2-nitrobenzoic acid. 5-thio-2-nitrobenzoic acid has a strong absorbance at 412 nm. The intensity of absorbance at this wavelength is directly proportional to the concentration of bound conjugate, which is in turn is directly proportional to the concentration of sPLA2 present (Absorbance a [AChE:Fab′ conjugate] α [sPLA2]). During the development step, the plate is shaken, preferably in the dark. In certain embodiments the development time for the assay is 0.5 to 3 hours, preferably 1 to 1.5 hours. At the end of the development period, the high sPLA2 standards should have greater yellow color development than the zero standards. Absorbance of each well is measured at 400-420 nm using a micro-well plate reader. In certain embodiments, absorbance is measured at about 405 nm.
# Absorbance readings for duplicate wells are averaged, and the relative standard deviation and % CV are calculated. Standard curve data are used to generate a four parameter curve, and quality control and test samples are measured against the appropriate standard curve (i.e., the standard curve with the same serum content). In order for a test to be considered valid, variation between duplicate wells should be no more than about 25%, and negative controls (blanks) for each standard curve should have a mean absorbance of less than about 0.3.
# The method disclosed herein for measuring sPLA2 levels in serum was utilized to determine the effect of administering certain sPLA2 inhibitors on sPLA2 levels in 84 human subjects. The subjects included 24 subjects with diabetes, 32 subjects with metabolic syndrome, and 75 subjects receiving statin treatment. Subjects were administered the sPLA2 inhibitor A-002, a prodrug form of A-001, twice a day at varying dosages from 50 to 500 mg. The structures of A-002and A-001 are set forth below. At two weeks and four weeks after the first administration, sPLA2 levels were measured and compared to pre-administration baseline levels.
# 84 subjects with stable coronary artery disease were randomized to receive placebo or A-002 via oral administration twice a day over a four week administration period. […]
# [1] = 50 mg, diabetes subgroup of ITT population
# [2] = 50 mg, non-diabetes subgroup of ITT population
# [3] = 50 mg, statin subgroup of ITT population
# [4] = 100 mg, diabetes subgroup of ITT population
# [5] = 100 mg, non-diabetes subgroup of ITT population
# [6] = 100 mg, statin subgroup of ITT population
compound,measurement,setting,value
"CCc1c(C(=O)C(N)=O)c2c(OCC(=O)OC)cccc2n1Cc1ccccc1 [A-002, [[3-(2-Amino-1,2-dioxoethyl)-2-ethyl-1-(phenylmethyl)-1H-indol-4-yl]oxy]acetic acid methyl ester]","sPLA2 Change from baseline at week 2, Mean","50 mg, ITT population",-2.74 ng/mL
same,"sPLA2 Change from baseline at week 2, Median","50 mg, ITT population",-2.60 ng/mL
same,"sPLA2 Change from baseline at week 2, Range","50 mg, ITT population",-5.30 to -0.60 ng/mL
same,"sPLA2 Change from baseline at week 4, Mean","50 mg, ITT population",-2.50 ng/mL
same,"sPLA2 Change from baseline at week 4, Median","50 mg, ITT population",-2.15 ng/mL
same,"sPLA2 Change from baseline at week 4, Range","50 mg, ITT population",-6.40 to -0.60 ng/mL
same,"sPLA2 level, Baseline, Mean","50 mg, ITT population",3.24 ng/mL
same,"sPLA2 level, Baseline, Median","50 mg, ITT population",2.65 ng/mL
same,"sPLA2 level, Baseline, Range","50 mg, ITT population",0.80 to 8.80 ng/mL
same,"sPLA2 level, Week 2, Mean","50 mg, ITT population",0.89 ng/mL
same,"sPLA2 level, Week 2, Median","50 mg, ITT population",0.45 ng/mL
same,"sPLA2 level, Week 2, Range","50 mg, ITT population",0.20 to 4.00 ng/mL
same,"sPLA2 level, Week 4, Mean","50 mg, ITT population",0.85 ng/mL
same,"sPLA2 level, Week 4, Median","50 mg, ITT population",0.70 ng/mL
same,"sPLA2 level, Week 4, Range","50 mg, ITT population",0.10 to 2.40 ng/mL
same,"sPLA2 Change from baseline at week 2, Mean",[1],-2.05 ng/mL
same,"sPLA2 Change from baseline at week 2, Median",[1],-2.45 ng/mL
same,"sPLA2 Change from baseline at week 2, Range",[1],-2.70 to -0.60 ng/mL
same,"sPLA2 Change from baseline at week 4, Mean",[1],-1.76 ng/mL
same,"sPLA2 Change from baseline at week 4, Median",[1],-1.50 ng/mL
same,"sPLA2 Change from baseline at week 4, Range",[1],-3.20 to -0.60 ng/mL
same,"sPLA2 level, Baseline, Mean",[1],2.45 ng/mL
same,"sPLA2 level, Baseline, Median",[1],2.65 ng/mL
same,"sPLA2 level, Baseline, Range",[1],0.80 to 3.80 ng/mL
same,"sPLA2 level, Week 2, Mean",[1],0.55 ng/mL
same,"sPLA2 level, Week 2, Median",[1],0.45 ng/mL
same,"sPLA2 level, Week 2, Range",[1],0.20 to 1.10 ng/mL
same,"sPLA2 level, Week 4, Mean",[1],0.66 ng/mL
same,"sPLA2 level, Week 4, Median",[1],0.60 ng/mL
same,"sPLA2 level, Week 4, Range",[1],0.20 to 1.20 ng/mL
same,"sPLA2 Change from baseline at week 2, Mean",[2],-3.09 ng/mL
same,"sPLA2 Change from baseline at week 2, Median",[2],-3.05 ng/mL
same,"sPLA2 Change from baseline at week 2, Range",[2],-5.30 to -0.70 ng/mL
same,"sPLA2 Change from baseline at week 4, Mean",[2],-3.03 ng/mL
same,"sPLA2 Change from baseline at week 4, Median",[2],-2.80 ng/mL
same,"sPLA2 Change from baseline at week 4, Range",[2],-6.40 to -0.80 ng/mL
same,"sPLA2 level, Baseline, Mean",[2],3.72 ng/mL
same,"sPLA2 level, Baseline, Median",[2],3.20 ng/mL
same,"sPLA2 level, Baseline, Range",[2],1.30 to 8.80 ng/mL
same,"sPLA2 level, Week 2, Mean",[2],1.06 ng/mL
same,"sPLA2 level, Week 2, Median",[2],0.06 ng/mL
same,"sPLA2 level, Week 2, Range",[2],0.20 to 4.00 ng/mL
same,"sPLA2 level, Week 4, Mean",[2],0.96 ng/mL
same,"sPLA2 level, Week 4, Median",[2],0.75 ng/mL
same,"sPLA2 level, Week 4, Range",[2],0.10 to 2.40 ng/mL
same,"sPLA2 Change from baseline at week 2, Mean",[3],-2.74 ng/mL
same,"sPLA2 Change from baseline at week 2, Median",[3],-2.60 ng/mL
same,"sPLA2 Change from baseline at week 2, Range",[3],-5.30 to -0.60 ng/mL
same,"sPLA2 Change from baseline at week 4, Mean",[3],-2.50 ng/mL
same,"sPLA2 Change from baseline at week 4, Median",[3],-2.15 ng/mL
same,"sPLA2 Change from baseline at week 4, Range",[3],-6.40 to -0.60 ng/mL
same,"sPLA2 level, Baseline, Mean",[3],3.34 ng/mL
same,"sPLA2 level, Baseline, Median",[3],2.70 ng/mL
same,"sPLA2 level, Baseline, Range",[3],0.80 to 8.80 ng/mL
same,"sPLA2 level, Week 2, Mean",[3],0.89 ng/mL
same,"sPLA2 level, Week 2, Median",[3],0.45 ng/mL
same,"sPLA2 level, Week 2, Range",[3],0.20 to 4.00 ng/mL
same,"sPLA2 level, Week 4, Mean",[3],0.85 ng/mL
same,"sPLA2 level, Week 4, Median",[3],0.70 ng/mL
same,"sPLA2 level, Week 4, Range",[3],0.10 to 2.40 ng/mL
same,"sPLA2 Change from baseline at week 2, Mean","100 mg, ITT population",-1.81 ng/mL
same,"sPLA2 Change from baseline at week 2, Median","100 mg, ITT population",-1.85 ng/mL
same,"sPLA2 Change from baseline at week 2, Range","100 mg, ITT population",−3.70 to +2.85 ng/ml
same,"sPLA2 Change from baseline at week 4, Mean","100 mg, ITT population",-2.55 ng/mL
same,"sPLA2 Change from baseline at week 4, Median","100 mg, ITT population",-2.50 ng/mL
same,"sPLA2 Change from baseline at week 4, Range","100 mg, ITT population",-5.70 to 0.00 ng/mL
same,"sPLA2 level, Baseline, Mean","100 mg, ITT population",2.86 ng/mL
same,"sPLA2 level, Baseline, Median","100 mg, ITT population",2.95 ng/mL
same,"sPLA2 level, Baseline, Range","100 mg, ITT population",0.05 to 6.00 ng/mL
same,"sPLA2 level, Week 2, Mean","100 mg, ITT population",0.68 ng/mL
same,"sPLA2 level, Week 2, Median","100 mg, ITT population",0.45 ng/mL
same,"sPLA2 level, Week 2, Range","100 mg, ITT population",0.05 to 2.90 ng/mL
same,"sPLA2 level, Week 4, Mean","100 mg, ITT population",0.49 ng/mL
same,"sPLA2 level, Week 4, Median","100 mg, ITT population",0.50 ng/mL
same,"sPLA2 level, Week 4, Range","100 mg, ITT population",0.05 to 1.10 ng/mL
same,"sPLA2 Change from baseline at week 2, Mean",[4],-1.11 ng/mL
same,"sPLA2 Change from baseline at week 2, Median",[4],-1.80 ng/mL
same,"sPLA2 Change from baseline at week 2, Range",[4],−3.00 to +2.85 ng/ml
same,"sPLA2 Change from baseline at week 4, Mean",[4],-2.30 ng/mL
same,"sPLA2 Change from baseline at week 4, Median",[4],-1.80 ng/mL
same,"sPLA2 Change from baseline at week 4, Range",[4],-5.70 to 0.00 ng/mL
same,"sPLA2 level, Baseline, Mean",[4],2.78 ng/mL
same,"sPLA2 level, Baseline, Median",[4],2.50 ng/mL
same,"sPLA2 level, Baseline, Range",[4],0.05 to 6.00 ng/mL
same,"sPLA2 level, Week 2, Mean",[4],1.02 ng/mL
same,"sPLA2 level, Week 2, Median",[4],0.50 ng/mL
same,"sPLA2 level, Week 2, Range",[4],0.40 to 2.90 ng/mL
same,"sPLA2 level, Week 4, Mean",[4],0.48 ng/mL
same,"sPLA2 level, Week 4, Median",[4],0.40 ng/mL
same,"sPLA2 level, Week 4, Range",[4],0.05 to 1.10 ng/mL
same,"sPLA2 Change from baseline at week 2, Mean",[5],-2.21 ng/mL
same,"sPLA2 Change from baseline at week 2, Median",[5],-2.40 ng/mL
same,"sPLA2 Change from baseline at week 2, Range",[5],-3.70 to -0.40 ng/mL
same,"sPLA2 Change from baseline at week 4, Mean",[5],-2.76 ng/mL
same,"sPLA2 Change from baseline at week 4, Median",[5],-2.60 ng/mL
same,"sPLA2 Change from baseline at week 4, Range",[5],-4.40 to -0.90 ng/mL
same,"sPLA2 level, Baseline, Mean",[5],2.91 ng/mL
same,"sPLA2 level, Baseline, Median",[5],3.20 ng/mL
same,"sPLA2 level, Baseline, Range",[5],1.00 to 4.90 ng/mL
same,"sPLA2 level, Week 2, Mean",[5],0.48 ng/mL
same,"sPLA2 level, Week 2, Median",[5],0.30 ng/mL
same,"sPLA2 level, Week 2, Range",[5],0.05 to 1.20 ng/mL
same,"sPLA2 level, Week 4, Mean",[5],0.51 ng/mL
same,"sPLA2 level, Week 4, Median",[5],0.60 ng/mL
same,"sPLA2 level, Week 4, Range",[5],0.05 to 1.00 ng/mL
same,"sPLA2 Change from baseline at week 2, Mean",[6],-1.81 ng/mL
same,"sPLA2 Change from baseline at week 2, Median",[6],-1.80 ng/mL
same,"sPLA2 Change from baseline at week 2, Range",[6],−3.70 to +2.85 ng/ml
same,"sPLA2 Change from baseline at week 4, Mean",[6],-2.46 ng/mL
same,"sPLA2 Change from baseline at week 4, Median",[6],-2.50 ng/mL
